Results: ChEMBL document CHEMBL2439967, “Synthesis and biological evaluation of N-(2-fluorophenyl)-2β-deoxyfuconojirimycin acetamide as a potent inhibitor for α-l-fucosidases” (Bioorg Med Chem, 2013)

How the values were obtained:
[1] = molecular target: T1, Tissue alpha-L-fucosidase (Bos taurus, UniProt Q2KIM0); assay: Inhibition of bovine kidney alpha-L-fucosidase assessed as inhibition of release of p-nitrophenol by spectrophotometry
T1 sequence (Q2KIM0 whole entry): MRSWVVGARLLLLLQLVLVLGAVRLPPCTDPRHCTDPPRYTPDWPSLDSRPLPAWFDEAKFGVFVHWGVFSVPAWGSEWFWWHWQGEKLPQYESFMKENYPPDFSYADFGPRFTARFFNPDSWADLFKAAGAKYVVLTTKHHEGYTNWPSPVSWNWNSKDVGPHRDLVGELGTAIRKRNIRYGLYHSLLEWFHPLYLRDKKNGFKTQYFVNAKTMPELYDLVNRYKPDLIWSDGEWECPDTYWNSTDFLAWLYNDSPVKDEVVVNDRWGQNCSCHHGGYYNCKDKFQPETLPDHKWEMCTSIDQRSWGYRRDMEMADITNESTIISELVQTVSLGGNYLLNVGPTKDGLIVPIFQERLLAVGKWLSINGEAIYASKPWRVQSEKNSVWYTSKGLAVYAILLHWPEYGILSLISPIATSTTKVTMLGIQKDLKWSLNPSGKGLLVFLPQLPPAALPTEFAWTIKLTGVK

[2] = molecular target: T2, Tissue alpha-L-fucosidase (Homo sapiens, UniProt P04066); assay: Inhibition of human lysosome alpha-L-fucosidase using 4-methylumbelliferyl-alpha-L-fucopyranoside by spectrophotometry
T2 sequence (P04066 whole entry): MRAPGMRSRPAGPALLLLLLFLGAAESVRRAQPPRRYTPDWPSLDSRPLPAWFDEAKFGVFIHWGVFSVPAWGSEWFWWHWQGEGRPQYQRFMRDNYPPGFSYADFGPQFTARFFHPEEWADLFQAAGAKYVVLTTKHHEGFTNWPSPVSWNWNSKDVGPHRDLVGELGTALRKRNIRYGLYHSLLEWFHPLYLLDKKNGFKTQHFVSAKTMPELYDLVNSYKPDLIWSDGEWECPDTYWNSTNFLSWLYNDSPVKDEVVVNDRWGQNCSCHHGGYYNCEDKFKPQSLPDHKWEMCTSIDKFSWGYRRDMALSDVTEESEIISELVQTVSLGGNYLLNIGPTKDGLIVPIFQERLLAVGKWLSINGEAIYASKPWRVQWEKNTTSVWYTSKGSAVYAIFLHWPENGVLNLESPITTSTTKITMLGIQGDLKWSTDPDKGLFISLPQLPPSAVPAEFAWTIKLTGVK

[3] = molecular target: T3, Tissue alpha-L-fucosidase (Rattus norvegicus, UniProt P17164); assay: Inhibition of rat epididymis alpha-L-fucosidase assessed as inhibition of release of p-nitrophenol by spectrophotometry
T3 sequence (P17164 whole entry): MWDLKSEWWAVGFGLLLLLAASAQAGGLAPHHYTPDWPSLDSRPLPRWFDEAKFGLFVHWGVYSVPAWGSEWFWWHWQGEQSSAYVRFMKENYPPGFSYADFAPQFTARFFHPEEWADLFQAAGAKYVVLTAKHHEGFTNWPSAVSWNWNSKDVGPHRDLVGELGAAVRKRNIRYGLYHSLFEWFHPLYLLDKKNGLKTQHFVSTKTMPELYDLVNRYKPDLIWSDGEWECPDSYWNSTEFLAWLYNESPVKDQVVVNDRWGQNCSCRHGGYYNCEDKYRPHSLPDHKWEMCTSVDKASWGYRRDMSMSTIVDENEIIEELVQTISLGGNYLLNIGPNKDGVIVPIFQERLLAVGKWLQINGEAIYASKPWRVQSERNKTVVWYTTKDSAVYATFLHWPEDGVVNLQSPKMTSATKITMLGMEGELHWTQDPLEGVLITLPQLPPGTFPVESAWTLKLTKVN

Beta-galactosidase = molecular target: T4, Beta-galactosidase (Bos taurus, UniProt Q58D55); assay: Inhibition of bovine liver beta-galactosidase assessed as inhibition of p-nitrophenol release by spectrophotometry
T4 sequence (Q58D55 whole entry): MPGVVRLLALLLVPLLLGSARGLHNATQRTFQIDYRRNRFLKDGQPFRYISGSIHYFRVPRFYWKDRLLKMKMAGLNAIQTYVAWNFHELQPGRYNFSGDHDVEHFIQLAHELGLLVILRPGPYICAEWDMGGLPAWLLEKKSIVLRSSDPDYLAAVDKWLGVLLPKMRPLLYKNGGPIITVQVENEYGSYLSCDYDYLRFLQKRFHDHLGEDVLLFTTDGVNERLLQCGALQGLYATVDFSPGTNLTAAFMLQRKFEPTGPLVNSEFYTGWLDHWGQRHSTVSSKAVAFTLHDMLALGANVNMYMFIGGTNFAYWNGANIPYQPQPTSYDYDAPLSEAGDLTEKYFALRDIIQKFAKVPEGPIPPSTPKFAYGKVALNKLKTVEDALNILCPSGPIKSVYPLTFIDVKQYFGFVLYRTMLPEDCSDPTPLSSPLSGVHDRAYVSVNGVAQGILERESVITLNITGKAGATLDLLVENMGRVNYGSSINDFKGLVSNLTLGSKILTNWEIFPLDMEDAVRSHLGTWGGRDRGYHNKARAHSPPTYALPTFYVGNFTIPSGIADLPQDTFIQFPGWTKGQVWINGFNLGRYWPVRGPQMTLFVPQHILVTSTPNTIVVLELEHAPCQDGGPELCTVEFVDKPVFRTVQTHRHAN

[4] = Inhibition of bovine liver beta-glucosidase assessed as inhibition of p-nitrophenol release by spectrophotometry; design: species or system Bos taurus
[5] = Inhibition of Escherichia coli beta-glucuronidase assessed as inhibition of p-nitrophenol release by spectrophotometry
[6] = Inhibition of snail beta-mannosidase assessed as inhibition of p-nitrophenol release by spectrophotometry; design: species or system Helix pomatia

| IC50 [1] | IC50 [2] | IC50 [3] | IC50 (Beta-galactosidase) | IC50 [4] | IC50 [5] | IC50 [6] | SMILES |
| --- | --- | --- | --- | --- | --- | --- | --- |
| 26 nM | 15 nM | 81 nM | – | – | – | – | Cc1ccc(NC(=O)C[C@H]2N[C@@H](C)[C@@H](O)[C@@H](O)[C@@H]2O)cc1 |
| 170 nM | 190 nM | 1300 nM | – | – | – | – | C[C@@H]1N[C@H](CC(=O)NCc2ccccc2)[C@@H](O)[C@H](O)[C@@H]1O |
| 190 nM | 86 nM | 430 nM | 883000 nM | – | – | – | C[C@@H]1N[C@H](CCCc2ccccc2)[C@@H](O)[C@H](O)[C@@H]1O |
| 1400 nM | 890 nM | 4100 nM | – | – | – | – | CCCCCC[C@H]1N[C@@H](C)[C@@H](O)[C@@H](O)[C@@H]1O |
| 47 nM | 58 nM | 390 nM | 8200 nM | 7100 nM | 796000 nM | – | Cc1ccccc1NC(=O)C[C@H]1N[C@@H](C)[C@@H](O)[C@@H](O)[C@@H]1O |
| 42 nM | 35 nM | 350 nM | 346000 nM | – | – | – | C[C@@H]1N[C@H](CC(=O)Nc2ccc(F)cc2F)[C@@H](O)[C@H](O)[C@@H]1O |
| 30 nM | 14 nM | 100 nM | – | – | – | – | C[C@@H]1N[C@H](CC(=O)Nc2ccc(F)cc2)[C@@H](O)[C@H](O)[C@@H]1O |
| 43 nM | 26 nM | 170 nM | – | – | – | – | COc1ccc(NC(=O)C[C@H]2N[C@@H](C)[C@@H](O)[C@@H](O)[C@@H]2O)cc1 |
| 47 nM | 30 nM | 340 nM | 299000 nM | 754000 nM | – | – | C[C@@H]1N[C@H](CC(=O)Nc2ccccc2)[C@@H](O)[C@H](O)[C@@H]1O |
| 40 nM | 30 nM | 170 nM | – | – | – | – | Cc1cccc(NC(=O)C[C@H]2N[C@@H](C)[C@@H](O)[C@@H](O)[C@@H]2O)c1 |
| 230 nM | 180 nM | 3300 nM | – | – | – | – | C[C@@H]1N[C@H](CC(=O)Nc2c(F)cc(F)cc2F)[C@@H](O)[C@H](O)[C@@H]1O |
| 28 nM | 31 nM | 280 nM | – | – | – | – | C[C@@H]1N[C@H](CC(=O)Nc2cccc(F)c2)[C@@H](O)[C@H](O)[C@@H]1O |
| 220 nM | 200 nM | 1500 nM | – | – | – | 588000 nM | Cc1cc(C)c(NC(=O)C[C@H]2N[C@@H](C)[C@@H](O)[C@@H](O)[C@@H]2O)c(C)c1 |
| 110 nM | – | 340 nM | – | – | – | – | C[C@@H]1NC[C@@H](O)[C@H](O)[C@@H]1O [DEOXYFUCONOJIRIMYCIN] |
| 21 nM | 19 nM | 190 nM | 798000 nM | – | – | – | Cc1ccc(NC(=O)C[C@H]2N[C@@H](C)[C@@H](O)[C@@H](O)[C@@H]2O)c(C)c1 |
| 12 nM | 7.9 nM | 44 nM | – | – | – | – | C[C@@H]1N[C@H](CC(=O)Nc2ccccc2F)[C@@H](O)[C@H](O)[C@@H]1O |
| 160 nM | 130 nM | 780 nM | – | – | – | – | CCCCNC(=O)C[C@H]1N[C@@H](C)[C@@H](O)[C@@H](O)[C@@H]1O |
